Results from patent EP2958918B1, “DIHYDROPTERIDINONES II” (Boehringer Ingelheim International GmbH, priority 2013, dated 2014).

Assays:
[1] = test system: Aβ42; assay: Aβ42 cellular assay: inhibition of Aβ42 production in H4 neuroglioma cells stably expressing human APP695, electrochemiluminescence (Meso Scale Discovery) on supernatant; type: cell-based; conditions: 22 hours incubation, tested range 30 µM to 0.1 nM
Experimental: (§1) Cells were plated out to near confluency. The compounds to be tested were received as 10 mM stocks in 100% DMSO. A dilution series was initially generated in 100% DMSO and then diluted 200-fold in cell culture media such that the tested concentration range was 30 µM to 0.1 nM and the final DMSO concentration was 0.5%. The diluted compounds were incubated with the cells for 22 hours in an incubator at 37°C and 5% CO2. Aβ42 as well as Aβ total levels were then measured post-incubation from the supernatant of the cells. Aβ42 levels were determined using a specific electrochemiluminescence assay provided by Meso Scale Discovery (Catalog # L21CA-1) according to the manufacturer's protocol. Aβ total levels were likewise determined using a specific electrochemiluminescence assay provided by Meso Scale Discovery (Catalog # L21ZA-1) according to the manufacturer's protocol.
(§2) In order to absolutely define the described compounds as modulators of y-Secretase as opposed to simply inhibitors of γ-Secretase, measurements of not only Aβ42 but also Aβ total are performed.

[2] = test system: Aβ total; assay: Aβ total cellular assay: inhibition of Aβ total production in H4 neuroglioma cells stably expressing human APP695, electrochemiluminescence (Meso Scale Discovery) on supernatant; used for the ratio Aβ total IC50 / Aβ42 IC50; type: cell-based; conditions: higher ratio = more specific inhibition of Aβ42
Experimental: as §1, §2

SMILES: COc1cc(Nc2ncc3c(n2)N(C)C2(CC2)C(=O)N3c2ccc(F)cc2)ccc1-n1cnc(C)c1 [Example 46]
- IC50 [1]: 0.098 µM
- Ratio Aß(total)/Aß42 [2]: > 306

SMILES: COc1cc(Nc2ncc3c(n2)N(C)C2(CC2)C(=O)N3C2COC2)ccc1-n1cnc(C)c1 [Example 47]
- IC50 [1]: 0.191 µM
- Ratio Aß(total)/Aß42 [2]: 98

SMILES: COc1cc(Nc2ncc3c(n2)N(C)C2(CCOC2)C(=O)N3c2ccc(C(F)(F)F)cn2)ccc1-n1cnc(C)c1 (centres unmarked) [Example 48]
- IC50 [1]: 0.389 µM
- Ratio Aß(total)/Aß42 [2]: 22

SMILES: COc1cc(Nc2ncc3c(n2)N(C)C2(CC4CCC2C4)C(=O)N3C)cnc1-n1cnc(C)c1 (centres unmarked) [Example 49]
- IC50 [1]: 0.095 µM
- Ratio Aß(total)/Aß42 [2]: 69

SMILES: COc1cc(Nc2ncc3c(n2)N(C)C2(CC2)C(=O)N3CC(F)(F)F)cnc1-n1cnc(C)c1 [Example 50]
- IC50 [1]: 0.204 µM
- Ratio Aß(total)/Aß42 [2]: > 147

SMILES: COc1cc(Nc2ncc3c(n2)N(C)C2(CC2)C(=O)N3CC(F)(F)F)ccc1-n1ccnc1C [Example 51]
- IC50 [1]: 0.059 µM
- Ratio Aß(total)/Aß42 [2]: 126

SMILES: COc1cc(Nc2ncc3c(n2)N(C)C2(CC2)C(=O)N3CC(F)F)ccc1-n1cnc(C)c1 [Example 52]
- IC50 [1]: 0.11 µM
- Ratio Aß(total)/Aß42 [2]: 61

SMILES: COc1cc(Nc2ncc3c(n2)N(C)C2(CCCC2)C(=O)N3C)ccc1-n1cnc(C)c1 [Example 53]
- IC50 [1]: 0.04 µM
- Ratio Aß(total)/Aß42 [2]: 132

SMILES: COc1cc(Nc2ncc3c(n2)N(C)C2(CCCC2)C(=O)N3CC(F)(F)F)ccc1-n1cnc(C)c1 [Example 54]
- IC50 [1]: 0.022 µM
- Ratio Aß(total)/Aß42 [2]: 116

SMILES: COc1cc(Nc2nc(CC(F)(F)F)c3c(n2)N(C)C2(CC2)C(=O)N3C)ccc1-n1cnc(C)c1 [Example 55]
- IC50 [1]: 0.076 µM
- Ratio Aß(total)/Aß42 [2]: 103
